Consider three compounds from patent US11666050B2, “Enhancing the antimicrobial activity of biocides with polymers” (BASF SE, priority 2012, dated 2023).

Common to all, as to format: cell-based
Test [1] concerns Staphylococcus aureus ATCC 6538. The test is described as follows: Bactericidal activity, method EN1276 (Example 1, Table 3). Particulars: biocide 250 ppm a.i., no PEI (control), S. aureus ATCC 6538. The source says:
(§1) Lines in grey shading indicate control sample (no PEI or no biocide added): […]

Test [2] relates to Pseudomonas aeruginosa ATCC 15442. The test can be described thus: Bactericidal activity, method EN1040 (Example 1, Table 1). Particulars: biocide alone; for log redn. after contact time 1 hr: contact time 1 hr; for log redn. after contact time 3 hrs: contact time 3 hrs; for log redn. after contact time 6 hrs: contact time 6 hrs; for log redn. after contact time 24 hrs: contact time 24 hrs.
From the text: as §1

The test system of test [3] is Staphylococcus aureus ATCC 6538. The test can be described thus: Bactericidal activity, method EN1040 (Example 1, Table 2). Particulars: biocide alone; for log redn. after contact time 1 hr: contact time 1 hr; for log redn. after contact time 3 hrs: contact time 3 hrs; for log redn. after contact time 6 hrs: contact time 6 hrs; for log redn. after contact time 24 hrs: contact time 24 hrs.
From the text: as §1

For the compound `Oc1cc(Cl)ccc1Oc1ccc(Cl)cc1` [Tinosan® HP 100, Hydroxydichlorodiphenyl Ether], the “log redn. after Contact time 5 min” value in test [1] is listed as 4.9 log redn.

`O=[N+]([O-])C(Br)(CO)CO` [Bronopol, 2-Bromo-2-nitropropane-1,3-diol]: in test [2] (0.1% a.i.), the “log redn. after contact time 1 hr” value is reported as less than 1 log, the “log redn. after contact time 3 hrs” value is recorded as less than 1 log, the “log redn. after contact time 6 hrs” value is reported as 4.2 log and the “log redn. after contact time 24 hrs” value turned out to be 2.4 log. Further, in test [3] (0.1% a.i.), the “log redn. after contact time 1 hr” value is listed as less than 1 log, the “log redn. after contact time 3 hrs” value was less than 1 log, the “log redn. after contact time 6 hrs” value is given as less than 1 log and the “log redn. after contact time 24 hrs” value worked out at 2.4 log.

As for `OCCOc1ccccc1` [phenoxyethanol, 2-Phenoxyethanol], in test [2] (1% a.i.), the “log redn. after contact time 1 hr” value is reported as less than 1 log, the “log redn. after contact time 3 hrs” value is on record as 1.3 log, the “log redn. after contact time 6 hrs” value came to 2.8 log and the “log redn. after contact time 24 hrs” value is recorded as more than 6 log. For the same compound, in test [3] (1% a.i.), the “log redn. after contact time 1 hr” value was less than 1 log, the “log redn. after contact time 3 hrs” value is less than 1 log, the “log redn. after contact time 6 hrs” value was less than 1 log and the “log redn. after contact time 24 hrs” value is reported as 1.1 log.
